Assay results reported in ChEMBL document CHEMBL1158026, “New jaspamide derivatives from the marine sponge Jaspis splendans collected in Vanuatu” (J Nat Prod, 1999).
≈ marks a conversion by molar mass, not a printed value.

Assay: Cytotoxicity against human NSCLC-N6 cells by MTT assay
Assay type: functional, cell-based

Row | Compound | IC50 [µg/mL]
1 | C/C1=C\[C@H](C)C[C@H](C)OC(=O)C[C@H](c2ccc(O)cc2)NC(=O)[C@@H](Cc2c(Br)[nH]c3ccccc23)N(C)C(=O)[C@H](C)NC(=O)[C@@H](C)C1 [JASPAMIDE] | 0.36 (≈ 0.507 µM)
2 | C=C1C[C@H](C)C(=O)N[C@@H](C)C(=O)N(C)[C@H](Cc2c(Br)[nH]c3ccccc23)C(=O)N[C@@H](c2ccc(O)cc2)CC(=O)O[C@@H](C)C[C@@H](C)C1=O [JASPLAKINOLIDE B] | 3.3 (≈ 4.56 µM)
3 | C=C1C[C@H](C)C(=O)N[C@@H](C)C(=O)N(C)[C@H](Cc2c(Br)[nH]c3ccccc23)C(=O)N[C@@H](c2ccc(O)cc2)CC(=O)O[C@@H](C)C[C@@H](C)C1O (stereo partly drawn) [JASPAMIDE C] | 1.1 (≈ 1.52 µM)
